This is an account of results in paper PMC3818834 (2013).

The test system of assay [1] is CA-70 (DNA, aptamer) GGTCAGCACGCTCCGGACTTGGGTGGGTGGGTTGGGGTACGGTGCGTAATGTGTCGCTGAGCCTGCCAAC
Kind of assay: fluorescence titration. As to conditions: 138 mM NaCl, 2.7 mM KCl, 2.5 mM MgCl2, 10 mM PBS pH 7.4, 0.05% TWEEN 20, 25 °C.

Assay [2] deals with CA-40 (DNA, aptamer) ACGCTCCGGACTTGGGTGGGTGGGTTGGGGTACGGTGCGT
Kind of assay: fluorescence titration. The following applies: 138 mM NaCl, 2.7 mM KCl, 2.5 mM MgCl2; 10 mM PBS pH 7.4, 0.05% TWEEN 20, 25 °C; compound 1 µM; 1:1 assumed.

Assay [3] has as its system CA-20 (DNA, aptamer) TGGGTGGGTGGGTTGGGGTA
The experiment in a line: fluorescence titration. As to conditions: 138 mM NaCl, 2.7 mM KCl, 2.5 mM MgCl2; 10 mM PBS pH 7.4, 0.05% TWEEN 20, 25 °C; compound 1 µM; nucleic acid up to 10 µM.

Assay [4] concerns CA-19 (DNA, aptamer) GGGTGGGTGGGTTGGGGTA
The experiment in a line: fluorescence titration. As to conditions: 138 mM NaCl, 2.7 mM KCl, 2.5 mM MgCl2; 10 mM PBS pH 7.4, 0.05% TWEEN 20, 25 °C; compound 1 µM; nucleic acid up to 10 µM.

For assay [5], the system named is CA-18A (DNA, aptamer) TGGGTGGGTGGGTTGGGG
The experiment in a line: fluorescence titration. As to conditions: 138 mM NaCl, 2.7 mM KCl, 2.5 mM MgCl2, 10 mM PBS pH 7.4, 0.05% TWEEN 20, 25 °C, compound 1 µM.

Assay [6] has as its system CA-18B (DNA, aptamer) GGGTGGGTGGGTTGGGGT
Kind of assay: fluorescence titration. The following applies: 138 mM NaCl, 2.7 mM KCl, 2.5 mM MgCl2; 10 mM PBS pH 7.4, 0.05% TWEEN 20, 25 °C; compound 1 µM; nucleic acid up to 10 µM.

The subject of assay [7] is CA-17 (DNA, aptamer) GGGTGGGTGGGTTGGGG
The experiment in a line: fluorescence titration. As to conditions: 138 mM NaCl, 2.7 mM KCl, 2.5 mM MgCl2, 10 mM PBS pH 7.4, 0.05% TWEEN 20, 25 °C, compound 1 µM.

Assay [8] has as its system CA-16 (DNA, aptamer) GGGTGGGTGGGTTGGG
Kind of assay: fluorescence titration. The following applies: 138 mM NaCl, 2.7 mM KCl, 2.5 mM MgCl2, 10 mM PBS pH 7.4, 0.05% TWEEN 20, 25 °C, compound 1 µM.

Assay [9] has the same test system. Kind of assay: CD melting at 265 nm. As to conditions: 138 mM NaCl, 2.7 mM KCl, 2.5 mM MgCl2; 10 mM PBS pH 7.4; compound 10 µM, nucleic acid 10 µM; Tm without compound 73 °C.
Assay [10] relates to CA-23A (DNA, aptamer) ACTTGGGTGGGTGGGTTGGGGTA
The experiment in a line: fluorescence titration. The following applies: 138 mM NaCl, 2.7 mM KCl, 2.5 mM MgCl2; 10 mM PBS pH 7.4, 0.05% TWEEN 20, 25 °C; compound 1 µM; 1:1 assumed.

Assay [11] deals with CA-23B (DNA, aptamer) TTTTGGGTGGGTGGGTTGGGGTA
The experiment in a line: fluorescence titration. As to conditions: 138 mM NaCl, 2.7 mM KCl, 2.5 mM MgCl2; 10 mM PBS pH 7.4, 0.05% TWEEN 20, 25 °C; compound 1 µM; nucleic acid up to 10 µM.

Assay [12] concerns CA-19 (DNA, aptamer) GGGTGGGTGGGTTGGGGTA
The experiment in a line: fluorescence polarization. As to conditions: 138 mM NaCl, 2.7 mM KCl, 2.5 mM MgCl2; 10 mM PBS pH 7.4, 0.05% TWEEN 20, 25 °C; compound 1 µM; nucleic acid up to 10 µM. A general note: In fluorescence polarisation assays a small probe gives low polarisation when free and higher when bound to something large.

Assay [13] deals with CA-16 (DNA, aptamer) GGGTGGGTGGGTTGGG
Kind of assay: fluorescence polarization. The following applies: 138 mM NaCl, 2.7 mM KCl, 2.5 mM MgCl2; 10 mM PBS pH 7.4, 0.05% TWEEN 20, 25 °C; compound 1 µM.

What is called Kd is the constant that tells how readily two partners part at equilibrium. The molecule `O=c1c2ccccc2[nH]c2ccccc12` showed a Kd in assay [1] (nucleic acid up to 10 µM) of more than 10 µM.

As for `CC[C@@]1(O)C(=O)OCc2c1cc1n(c2=O)Cc2cc3ccccc3nc2-1`, the Kd is 4.6 ± 0.3 µM in assay [1] (compound 1 µM, 1:1 assumed); 5.6 ± 0.5 µM in [2]; more than 10 µM in [3]; more than 10 µM in assay [4]; more than 10 µM in assay [5] (nucleic acid up to 10 µM); more than 10 µM in assay [6]. Besides, the results for the equilibrium dissociation constant (Kd) in assay [7] (nucleic acid up to 10 µM) and in [8] (1:1 assumed) were more than 10 µM and 4.2 ± 0.4 µM, respectively.

Consider `O=C(O)Cc1ccc2[nH]c3ccccc3c(=O)c2c1`, for which, in assay [1] (nucleic acid up to 10 µM), the Kd was more than 10 µM.

Consider `CC[C@@]1(O)C(=O)OCc2c1cc1n(c2=O)Cc2c-1nc1ccccc1c2CN1CCC(N)CC1`, for which the Kd is reported as 3.6 ± 0.2 µM in assay [1] (compound 1 µM, 1:1 assumed); 3.0 ± 0.2 µM in [2]; more than 10 µM in assay [3]; more than 10 µM in assay [4]; 3.4 ± 0.3 µM in assay [5] (1:1 assumed); more than 10 µM in assay [6]. The dissociation constant (Kd) in assay [7] (1:1 assumed) was 8.9 ± 1.0 µM; in assay [8] (1:1 assumed) it was 2.7 ± 0.3 µM.

Regarding `CC[C@@]1(O)C(=O)OCc2c1cc1n(c2=O)Cc2c-1nc1ccccc1c2CN1CCC(NC(=O)COCC(=O)NCCOCCOCCOCCOCCOCCOCCOCCOCCOCCOCCOCCN)CC1`, the binding entry in assay [9] is on record as “yes”; in assay [12], “no”; in assay [13], “yes”. In addition, the Kd in [1] (compound 1 µM, 1:1 assumed) was 1.8 ± 0.3 µM; in [2], 3.0 ± 0.4 µM; in [10], 2.1 ± 0.9 µM; in assay [11], more than 10 µM; in assay [3], more than 10 µM; in assay [4], more than 10 µM. Also, the Kd in assay [5] (1:1 assumed) was 6.0 ± 0.8 µM; in assay [6], more than 10 µM; in assay [7] (1:1 assumed), 8.1 ± 0.9 µM; in assay [8] it was 1.8 ± 0.3 µM.

Regarding `Cc1cc2nc3c(=O)[nH]c(=O)nc-3n(C[C@H](O)[C@H](O)[C@H](O)COP(=O)(O)O)c2cc1C`, in assay [1], the Kd is on record as 8.5 µM.

For `O=C1OC2(c3ccc(O)cc3Oc3cc(O)ccc32)c2ccccc21`, the Kd in assay [1] (nucleic acid up to 10 µM) is given as more than 10 µM.
